In patent publication US20120107323A1, “KINASE PROTEIN BINDING INHIBITORS” (University of Florida, priority 2009, published 2012):
pIC50: −log10 of the molar value.

How the values were obtained:
C8161 subcutaneous tumor = assay: C8161 melanoma xenograft in nude mice; assay type: in vivo
Protocol: (§1) Kinase Profiler Screening: Kinase specificity screening was performed with Invitrogen's SelectScreen® Kinase Profiling Services http://www.invitrogen.com/site/us/en/home/Products-and-Services/Services/Discoverv-Research/SelectScreen-Profiling-Service/SelectScreen-Kinase-Profiling-Service.html. The screening was performed with 1 μM compound, INT2-31, 10 μM ATP, and kinase substrates against ten recombinant kinases according to Z′-LYTET™ Kinase Assay. For PI3 kinase activity, 100 μM ATP, and kinase substrate were utilized with the Invitrogen Adapta® Universal Kinase Assay protocol. Tumor Growth in Nude Mice in vivo: Six week old athymic, female nude mice were purchased from Harlan Laboratory. The mice were maintained in the animal facility, and all experiments were performed in compliance with NIH animal-use guidelines and under an IACUC approved protocol. Melanoma cells were injected, 5×10^6 cells, subcutaneously. When the tumor size reached 100 mm^3, the INT2-31 was introduced by intraperitoneal injection at a dose of 15 mg/kg daily for 21 days. Tumor diameters were measured with calipers, and tumor volume in mm^3 was calculated using the formula [(width)^2×length]/2. At the end of experiment, tumor weight and volume were determined.
For the melanoma study, the University of Florida IACUC approved the following protocol (IACUC Study #200801077). Melanoma cells were injected, 5×10^6 cells, subcutaneously. When the tumor size reached 100 mm^3, the INT2-31 was introduced by intraperitoneal injection at a dose of 15 mg/kg daily. Tumor diameters were measured with calipers, and tumor volume in mm^3 was calculated using the formula [(width)^2×length]/2. At the end of experiment, tumor weight and volume were determined.
Immunohistochemistry: Xenograft tumor tissue was fixed in 10% formalin and embedded in paraffin. For Ki-67 staining, samples underwent deparaffinization and antigen retrieval and incubated with the primary antibody, Ki-67 (Dako M7240), at 1:200 concentration overnight at 4° C. The tissues were stained with the chromogen DAB and counterstained with hematoxylin and 1% TBS.
For assessment of apoptotic cells, staining was performed utilizing the Dead End™ Calorimetric TUNEL System (Promega, Madison, Wis.) according to instructions from the manufacturer. Percent apoptotic cells were determined from counting at least 400 cells in a high power field.

melanoma tumor = assay: Melanoma tumor in nude mice, 5 days of treatment; assay type: in vivo; settings: 15 mg/kg intraperitoneal for 5 days, p<0.05
C8161 melanoma cells = assay: Cell counts, C8161; assay type: cell-based, human
[1] = tested on: insulin receptor, VEGFR-1, AKT-1, EGFR, VEGFR-2, c-MET, PDGFRa, p70S6K, Src and PI3Kinase; assay: Kinase profiler screening, other protein kinases; assay type: biochemical; settings: 1 μM compound
Protocol: as §1

SK-MEL-28 melanoma cells = assay: Cell viability (MTT), SK-MEL-28; assay type: cell-based; settings: Homo sapiens; SK-MEL-28, 72 hours; read-out: IC50 of INT2-31, cell viability
Protocol: Cell viability (MTT) and CFSE Proliferation assay: Cells were plated in 96-well plates and let adhere overnight. After cell treatment, cell viability was measured by 3-(4,5-dimethylthiazol-2-yl)-2,5-diphenyl tetrazolium bromide (MTT) assay (CellTiter 96® Aqueous, Promega, Madison, Wis.).
Cell viability and detachment assays: After cells were treated with siRNA transfection, cell viability was measured by 3-(4,5-dimethylthiazol2-yl)-2,5-diphenyl tetrazolium bromide (MTT) assay (CellTiter 96® AQueous, Promega, Madison, Wis.). Briefly, 20 μl of the tetrazolium compound was added to each well. The cells were then incubated at 37° C. for 1 h. The plate was read at 490 nm with a plate reader to determine the viability. In detachment assays, detached and attached cells were harvested separately and counted in a hemocytometer. The percentage of detachment was calculated by dividing the number of detached cells by the total number of cells. Apoptosis assays: After treatment, attached and detached cells were collected, counted and prepared for terminal uridine deoxynucleotidyl transferase (TUNEL) assay by utilizing an APO-BRDU kit (BD Pharmingen, San Diego, Calif.) according to the manufacturer's instructions. Stained cells were analyzed with a fluorescence-activated cell sorting-Calibur flow cytometer (BD Biosciences). […] Apoptotic cells were also analyzed by Hoechst staining. […]

`CSc1ncnc2c1ccn2C1O[C@H](COP(=O)(O)O)[C@@H](O)[C@H]1O` (stereo partly drawn) [INT2-31, 4-(Methylthio)-7-(5-O-phosphono-D-ribofuranosyl)-{7H-Pyrrolo[2,3-d]pyrimidine}] was tested, and the “phosphorylation of AKT in tumor” value (C8161 subcutaneous tumor; 15 mg/kg vs PBS control, Western blot) was “decrease in phosphorylation of AKT”, the “subcutaneous tumor growth compared to PBS control” value (C8161 subcutaneous tumor; C8161, 15 mg/kg daily intraperitoneal, 21 days, p<0.05) was “significant decrease” and the “body weights between animals in each group” value (C8161 subcutaneous tumor; C8161 and A375 xenograft mice, 15 mg/kg) was “no significant difference”. For the same compound, the “intensity of Ki67 staining” value (C8161 subcutaneous tumor; C8161 tumors, 15 mg/kg vs PBS) was “significantly decreased”, the “percent of cells reactive to Ki67” value (C8161 subcutaneous tumor; C8161 tumors, 15 mg/kg vs PBS) was “significantly decreased” and the “percent of cells undergoing apoptosis (TUNEL)” value (C8161 subcutaneous tumor; C8161 tumors, 15 mg/kg vs control, p<0.05) was “significantly increased”. The “densitometry, mean ratio of IGF-1R to FAK in tumor” value (C8161 subcutaneous tumor; C8161 tumors, immunoprecipitation of FAK, PBS 0.98+/−0.11, p=0.09) was 0.78+/−0.16, the melanoma tumor regression (melanoma tumor) was “caused melanoma tumor regression” and the “growth, cell numbers” value (C8161 melanoma cells) was “potent time and dose dependent inhibition”. For the same compound, the “inhibition of any of the other protein kinases” value [1] was ≤ 22% and the pIC50 (SK-MEL-28 melanoma cells) was 4.66.
